The record followed here is US6794387B2, “Pharmaceutically active compounds” (Pfizer Inc., priority 2001, dated 2004).

Usually IC50 stands for the concentration needed to halve the response being measured. A high value points to weaker potency in that assay.

Series [1] can be described thus: In vitro metabolism in human hepatic microsomal fractions (HLM half-life). It counts as in vitro ADME. To be noted: human liver microsomes, initial substrate concentration 1 μM, 37° C. As to the method: In vitro metabolism experiments were carried out in the hepatic microsomal fractions from man. Transplant-quality human liver tissue was obtained from the International Institute for the Advancement of Medicine (Exton, Pa., USA). Microsomes were prepared according to the method described in Biochemical Pharmacology, […], 48, 2147-2156 and stored at −80° C. The concentrations of protein and cytochrome P450 were determined by standard methods described in Journal of Biological Chemistry, 1951, 193, 265-275 and Journal of Biological Chemistry, 1964, 239, 2370-2378.
Microsomal incubations (1.5 ml) were prepared containing 0.5 μM cytochrome P450, 200 mM phosphate buffer (pH 7.4), 0.1 M MgCl2, 0.1 M isocitric acid, 1 unit/ml isocitrate dehydrogenase and 20 mM β-NADP. […] The extracts were evaporated to dryness and analysed by LC-MS/MS (Hewlett Packard HP1100 binary pump, Hypersil HS100 C18, 5 cm by 4.6 mm internal diameter, 5 μm column using a mobile phase of 2 mM ammonium acetate in 90:10 methanol/water, aqueous portion adjusted to pH 4 with glacial acetic acid, and a flowrate of 1 ml/min). […] Disappearance rate constants (k) in human microsomal preparations were determined by linear regression of the log ratio (compound under study/internal standard) versus time. The in vitro human microsomal half-lives were determined according to the equation t1/2=In 2/k. […]
(Microsomes from liver hold many membrane-bound enzymes, among them those of drug oxidation.)

For series [2], the target named is T1, cGMP PDE5 (human corp. cav.) (Homo sapiens, UniProt O76074).
T1 construct: from tissue; host or cells: human corpus cavernosum
Put plainly: Phosphodiesterase (PDE) inhibitory activity, cGMP PDE5. To be noted: enzyme from human corpus cavernosum. Format: biochemical. The method, then:
Compounds of the present invention are potent and selective cGMP PDE5 inhibitors. In vitro PDE inhibitory activities against cyclic guanosine 3′,5′-monophosphate (cGMP) and cyclic adenosine 3′,5′-monophosphate (cAMP) phosphodiesterases were determined by measurement of their IC50 values (the concentration of compound required for 50% inhibition of enzyme activity).
The required PDE enzymes were isolated from a variety of sources, including human corpus cavernosum, human platelets, human cardiac ventricle, human skeletal muscle and human and canine retina, essentially by the method of W. J. Thompson and M. M. Appleman (Biochem., 1971, 10, 311). […]
Assays were performed either using a modification of the “batch” method of W. J. Thompson et al. (Biochem., 1979, 18, 5228) or using a scintillation proximity assay for the direct detection of AMP/GMP using a modification of the protocol described by Amersham plc under product code TRKQ7090/7100. […] Plates were re-sealed and shaken for 20 min, after which the beads were allowed to settle for 30 min in the dark and then counted on a TopCount plate reader (Packard, Meriden, Conn.). Radioactivity units were converted to % activity of an uninhibited control (100%), plotted against inhibitor concentration and inhibitor IC50 values obtained using the ‘Fit Curve’ Microsoft Excel extension or in-house equivalent.

For the molecule `CCCc1nc(C)c2c(=O)[nH]c(-c3cc(S(=O)(=O)N4CCN(CC)CC4)ccc3OCC)nn12` [Comound A, 2-[2-ethoxy-5-(4-ethyl-piperazin-1-yl-1-sulphonyl)-phenyl]-5-methyl-7-propyl-3H-imidazo[5,1-f][1,2,4]triazin-4-one, reference compound], in series [1], the “HLM t1/2” value is 4 min.
On to `CCCCOc1ncc(C(C)=O)cc1-c1nn2c(CC)nc(C)c2c(=O)[nH]1` [Example 1, 2-(5-Acetyl-2-butoxy-3-pyridinyl)-7-ethyl-5-methylimidazo[5,1-f][1,2,4]triazin-4(3H)-one], for which the half-inhibitory concentration (IC50) in series [2] came out at 1.34 nM. Further, in series [1] (pH 7.4, read-out: HLM t1/2), the half-life at 1 μM came to 21 min.
In series [2], `CCCCOc1ncc(C(C)=O)cc1-c1nn2c(CC)nc(CCC)c2c(=O)[nH]1` [Example 2, 2-(5-Acetyl-2-butoxy-3-pyridinyl)-7-ethyl-5-propylimidazo[5,1-f][1,2,4]triazin-4(3H)-one] had an IC50 of 1.96 nM.
